Test: Inhibition of NLRP3-dependent pyroptosis in PMA-differentiated human THP-1 cells assessed as inhibition of LPS/ATP-induced cell death pretreated for 4 hrs with LPS followed by incubation with compound for 1 hr and later treated with ATP for 1.5 hrs by LDH assay

Compound `CCOC(=O)Cn1nc(Cc2ccccc2Cl)oc1=O` has an IC50 of 1.55 µM.

Source: BindingDB's records for doi:10.1016/j.ejmech.2023.115542 (University of Turin, 2023)
